How the values were obtained:
Details in all cases: synthetic library passage 3, intravenous, relative to wild-type AAV9
brain [1] = test: NGS fold enrichment of synthetic library (passage 3) in BALB/c mice, first cross-species screen; type: in vivo
Summary of the method: (§1)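 Fold enrichment versus wild-type AAV9 was derived by NGS of RT-PCR-amplified RNA from nervous tissue, collected e.g. 28 days after IV dosing […]. The library (passage 3) was given to two NHPs aged 2-4 years and to 6-8-week BALB/c and C57Bl/6 mice (n=3 each).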

brain [2] = test: NGS fold enrichment of synthetic library (passage 3) in C57Bl/6 mice, first cross-species screen; type: in vivo
Summary of the method: as §1

[3] = test system: brain, spinal cord, and DRG of the NHPs; test: NGS fold enrichment of synthetic library (passage 3) in NHPs, first cross-species screen; type: in vivo, cynomolgus macaques (Macaca fascicularis)
Summary of the method: as §1

[4] = RNA from brain of BALB/c mice, NGS
[5] = RNA from brain of C57Bl/6 mice, NGS
[6] = RNA from spinal cord of NHPs, NGS

Sequence	Fold enrichment over AAV9 in the brain of Mice (BALB/c) (brain [1]; [4])	Fold enrichment over AAV9 in the brain of Mice (C57Bl/6) (brain [2]; [5])	Fold enrichment over AAV9 in the brain of NHPs ([3]; RNA from brain of NHPs, NGS)	Fold enrichment over AAV9 in the spinal cord of NHPs [3, 6]	Fold enrichment over AAV9 in the brain of Mice (BALB/c) (brain [1]; RNA NGS, brain of BALB/c mice)	Fold enrichment over AAV9 in the brain of Mice (C57Bl/6) (brain [2]; RNA NGS, brain of C57Bl/6 mice)	Fold enrichment over AAV9 in the brain of NHPs ([3]; RNA NGS, brain of NHPs)	Fold enrichment over AAV9 in the spinal cord of NHPs ([3]; RNA NGS, spinal cord of NHPs)
GSGQNQRTMVATQT	0.554 fold	0.649 fold	1.130 fold	1.122 fold	–	–	–	–
GSGQNQQHSSSHLT	–	–	–	–	0.859 fold	1.091 fold	1.581 fold	2.782 fold
GMSAHMSSGQNQQT	–	–	–	–	0.947 fold	1.310 fold	2.456 fold	5.255 fold
GSGFSHSMGKNQQT	0.611 fold	1.381 fold	1.188 fold	9.809 fold	–	–	–	–
GSGERLHLTQNQQT	–	–	–	–	0.245 fold	0.387 fold	1.885 fold	1.456 fold
GFNGSPSSGQNQQT	–	–	–	–	0.924 fold	2.338 fold	2.609 fold	12.197 fold
GSGAITHMPQNQQT	–	–	–	–	0.411 fold	0.647 fold	1.695 fold	1.681 fold
GSYGMAASGQNQQT	–	–	–	–	0.829 fold	1.274 fold	3.817 fold	10.052 fold
GSGPSISHGQNQQT	–	–	–	–	0.665 fold	0.614 fold	1.000 fold	0.000 fold
GFAHQASSGQNQQT	–	–	–	–	1.080 fold	1.638 fold	1.587 fold	1.852 fold
GSLSTPSSGQNQQT	–	–	–	–	0.669 fold	1.094 fold	2.159 fold	1.279 fold
GSGQNQGTVYPNQT	0.815 fold	0.835 fold	1.358 fold	7.648 fold	–	–	–	–
